Values quoted from earlier work, collected in patent publication US20190269662A1, “SOLID COMPOSITIONS OF ACTIVES, PROCESSES FOR PREPARING SAME AND USES OF SUCH SOLID COMPOSITIONS” (The University of Liverpool, priority 2018, published 2019).

Details: background statement; cited from earlier work

## Cc1nnc(C(C)C)n1[C@@H]1C[C@H]2CC[C@@H](C1)N2CC[C@H](NC(=O)C1CCC(F)(F)CC1)c1ccccc1 [maraviroc]
  oral bioavailability: approximately 33%
